Experimental data reported in patent US20060134073A1, “Compositions and methods for ex vivo preservation of blood vessels for vascular grafts using analogues of cAMP and cGMP” (priority 2004, published 2006).
Several values for one entry are separate records, joined by “and”; a condition that tells them apart may be missing. Identical values can stand only once.

Legend:
[1] = test system: jugular vein patch graft (neointimal hyperplasia); assay: murine autologous arterialized vein patch model: neointimal expansion of vein grafts; format: in vivo, C57BL/6J mice; details: vein patch preserved 2 hours at 25° C. in heparinized saline with additive (db-cAMP 2 mmol/L; 8-Br-cAMP 0.1 mmol/L; Rp-cAMPS 0.25 mmol/L), harvested postoperative day 21; mean ±SEM
[2] = test system: macrophages on the intima of porcine venous graft; assay: porcine vein graft model: macrophages on/in intima (anti-macrophage immunoperoxidase); format: in vivo; details: for A.Average Number of Macrophages on/in Intima* (400X objective) MAC-1 Staining, Left IJV Experimental: graft incubated 60 minutes in test solution before implantation, one animal per line
Protocol: (§1) 6.4 The following experiments were performed to determine the ability of various compounds to preserve vein grafts before implantation in a porcine vein graft model. Briefly, the vein grafts were excised from the pig, incubated in solutions containing the various test compounds, implanted back into the pig and excised after a set period of days. The excised veins were then examined for a variety of factors to determine the protective effect of the various compounds.
Anti-macrophage antibody: An indirect immunoperoxidase procedure was performed. Slides were treated with Declere antigen retrieval solution for 15 minutes followed by one rinse in phosphate-buffered saline (PBS) ([0.15M NaCl, pH 7.2]+0.05% Tween 20). Endogenous peroxidase activity was quenched by incubation with the peroxidase solution supplied in the Dako EnVision+ kit followed by two rinses in PBS (0.15M NaCl, pH 7.2)+0.05% Tween 20. The slides were then incubated for 20 minutes in a nonspecific protein block solution comprising 1% BSA and 1.5% normal goat serum in PBS (0.15M NaCl, pH 7.2)+0.05% Tween 20 followed by incubation with primary antibody for 1 hour. After two PBS (0.15M NaCl, pH 7.2)+0.05% Tween 20 rinses, the slides were treated with the Dako EnVision+ peroxidase labeled polymer for 30 minutes. The slides were rinsed twice with PBS (0.15M NaCl, pH 7.2)+0.05% Tween 20 and treated with Dako substrate-chromogen solution for 8 minutes. The slides were then rinsed in tap water, counterstained with hematoxylin, and blued with lithium chloride. Finally, the slides were dehydrated in increasing concentrations of alcohol, cleared with xylene, and mounted for interpretation. PBS (0.15M NaCl, pH 7.2)+0.05% Tween 20+1% BSA served as the diluent for all antibodies. All rinses were performed with PBS (0.15M NaCl, pH 7.2) supplemented with 0.05% Tween 20.
For the anti-macrophage antibody, all slides were judged for adequacy of tissue elements and staining and read blind by the Study Pathologist to quantify the number of macrophages on the intima of the porcine venous graft tissues. The quantification was performed by counting at 400× the number of positively stained macrophages in and on the intima of each section of venous graft tissue in 10 fields and then taking the average number of macrophages per field for each section. A mean score among the four venous graft sections for each test group was calculated.
(§2) This study tested the ability of a variety of preservation solutions to retard chronic intimal hyperplasia and protect vein grafts from restenosis and obstruction in a porcine interpositional graft model. The markers of inflammation of interest in this study were CD31 (PECAM-1), CD54 (ICAM-1), and macrophages (L1 or Calprotectin) in formalin-fixed, paraffin-embedded porcine venous graft tissues. Specifically, a porcine internal jugular vein was end to side anastamosed to the ipsilateral carotid artery, following 60 minutes of incubation in heparinized saline (negative control), Phorbol Myristate Acetate (PMA) as positive control, or experimental solutions. In addition to the detection of macrophages with either L1 or Calprotectin antibodies, anti-CD31 was used to detect endothelial cells, and Movat's Trichrome stain, together with biomorphometry was used to measure the percent of intimal expansion. For detection of CD31, an anti-CD31 antibody was applied to formalin-fixed, paraffin-embedded porcine spleen at one dilution (1:50). This dilution of anti-CD-31 antibody had strong to intense staining of splenic endothelium (positive control material). In order to detect CD54, mouse antihuman CD54 antibody was applied at one concentration (50 μg/mL) to ICAM-1/CD54 ultraviolet light (UV) activated resin spot slides. There was strong to intense staining of the ICAM-1/CD54 UV activated resin spot slides with 50 μg/mL of anti-CD54 antibody. […]

[3] = test system: endothelium (CD31) of porcine venous graft; assay: porcine vein graft model: endothelialization score (CD31 staining); format: in vivo; details: for endothelialization of treated venous graft compared to control contralateral venous graft: in words, based on slightly higher endothelialization scores; for B.Endothelialization Score CD31 Staining, Left IJV Experimental: mean score on 0-5 scale, graft incubated 60 minutes in test solution before implantation, one animal per line
Protocol: as §1
Anti-CD31 antibody: An indirect immunoperoxidase procedure was performed. Slides were treated with Declere antigen retrieval solution for 15 minutes followed by two rinses in phosphate-buffered saline (PBS [0.15M NaCl, pH 7.2]+0.05% Tween 20). The slides were then treated with 3% hydrogen peroxide to block endogenous peroxidase activity. After two PBS (0.15M NaCl, pH 7.2)+0.05% Tween 20 rinses, the slides were incubated for 20 minutes in a nonspecific protein block comprising 1% BSA, 1.5% normal horse serum, and 5% milk in PBS (0.15M NaCl, pH 7.2)+0.05% Tween 20. The slides were then incubated with primary antibody for 2 hours at 37° C. followed by two PBS (0.15M NaCl, pH 7.2)+0.05% Tween 20 rinses. The biotinylated secondary antibody was then added and incubated for 30 minutes. After two rinses in PBS (0.15M NaCl, pH 7.2)+0.05% Tween 20, the slides were treated with ABC reagent for 30 minutes followed by two PBS (0.15M NaCl, pH 7.2)+0.05% Tween 20 rinses. The slides were incubated with stable DAB substrate for 6 minutes, rinsed in tap water, counterstained with hematoxylin, and blued with lithium chloride. Finally, all slides were dehydrated in increasing concentrations of alcohol, cleared with xylene, and mounted for interpretation. PBS (0.15M NaCl, pH 7.2)+0.05% Tween 20+1% BSA served as the diluent for the primary antibody and ABC reagent. The diluent for the secondary antibody also contained 1% milk. All rinses were performed with PBS (0.15M NaCl, pH 7.2) supplemented with 0.05% Tween 20.
For the anti-CD31 antibody, all slides were judged for adequacy of tissue elements and staining and read blind by the Study Pathologist to quantify the degree of endothelialization of each section of venous graft tissue using the following scale: 0=no endothelialization, 1=less than 25% endothelialization, 2=25-50% endothelialization, 3=51-75% endothelialization, 4=greater than 75% endothelialization, 5=complete endothelialization. A mean score among the four venous graft sections for each test group was calculated.
as §2

[4] = test system: porcine venous graft (intimal hyperplasia); assay: porcine vein graft model: % neointimal expansion (histomorphometry, Movat's stain); format: in vivo; details: for C.% Neointimal Expansion Movat's Trichrome [100 * (neointima area/neointima area + lumen area], Left IJV Experimental: graft incubated 60 minutes in test solution before implantation, one animal per line; for % neointimal expansion (% NE) compared to contralateral venous graft and heparinized saline negative control: in words
Protocol: as §1
All slides were also stained with hematoxylin and eosin (H&E) and Movat's Pentachrome stains in preparation for histomorphometry. Calculations based on morphometry measurements were made using Microsoft Excel® software. For histomorphometry, neointimal area, luminal area, and percentage of neointimal expansion (100×[neointimal area/neointimal area+luminal area) was calculated for each venous graft section and the mean for each vessel were calculated.
This study tested the ability of a variety of preservation solutions to retard chronic intimal hyperplasia and protect vein grafts from restenosis and obstruction in a porcine interpositional graft model. The markers of inflammation of interest in this study were CD31 (PECAM-1), CD54 (ICAM-1), and macrophages (L1 or Calprotectin) in formalin-fixed, paraffin-embedded porcine venous graft tissues. Specifically, a porcine internal jugular vein was end to side anastamosed to the ipsilateral carotid artery, following 60 minutes of incubation in heparinized saline (negative control), Phorbol Myristate Acetate (PMA) as positive control, or experimental solutions. In addition to the detection of macrophages with either L1 or Calprotectin antibodies, anti-CD31 was used to detect endothelial cells, and Movat's Trichrome stain, together with biomorphometry was used to measure the percent of intimal expansion. For detection of CD31, an anti-CD31 antibody was applied to formalin-fixed, paraffin-embedded porcine spleen at one dilution (1:50). This dilution of anti-CD-31 antibody had strong to intense staining of splenic endothelium (positive control material). In order to detect CD54, mouse antihuman CD54 antibody was applied at one concentration (50 μg/mL) to ICAM-1/CD54 ultraviolet light (UV) activated resin spot slides. There was strong to intense staining of the ICAM-1/CD54 UV activated resin spot slides with 50 μg/mL of anti-CD54 antibody. The detection of macrophages was performed by the application of one concentration (2 μg/mL) of mouse anti-human macrophages antibody to formalin-fixed, paraffin embedded porcine spleen. There was moderate staining of macrophages with 2 μg/mL of anti-macrophages antibody. […] All slides were also stained with hematoxylin and eosin (H&E) and Movat's Pentachrome stains in preparation for histomorphometry.

porcine venous graft = assay: porcine vein graft model: graft occlusion at explant; format: in vivo; parameters: key: SO = substantially occluded; details: graft incubated 60 minutes in test solution before implantation; one animal per line
Protocol: as §1
This study tested the ability of a variety of preservation solutions to retard chronic intimal hyperplasia and protect vein grafts from restenosis and obstruction in a porcine interpositional graft model. The markers of inflammation of interest in this study were CD31 (PECAM-1), CD54 (ICAM-1), and macrophages (L1 or Calprotectin) in formalin-fixed, paraffin-embedded porcine venous graft tissues. Specifically, a porcine internal jugular vein was end to side anastamosed to the ipsilateral carotid artery, following 60 minutes of incubation in heparinized saline (negative control), Phorbol Myristate Acetate (PMA) as positive control, or experimental solutions. In addition to the detection of macrophages with either L1 or Calprotectin antibodies, anti-CD31 was used to detect endothelial cells, and Movat's Trichrome stain, together with biomorphometry was used to measure the percent of intimal expansion. […]

[5] = test system: MAC-1+ leukocytes adhering to the endothelium of the vein patch; assay: en face immunofluorescence: MAC-1+ leukocyte adhesion to vein patch; format: in vivo, C57BL/6J mice; details: 2 hours of preservation with db-cAMP vs without additive; 24 hours after operation; P<0.05
endothelial cells = details: stated as known; cited from earlier work

Nc1ncnc2c1nc(Br)n2[C@@H]1O[C@@H]2COP(=O)(O)O[C@H]2[C@H]1O [8-Br-cAMP, 8-bromo-adenosine 3′,5′-cyclic monophosphate]
neointimal expansion [1]: 44.3%±5.0%

Cc1[nH]c(=O)c(C#N)cc1-c1ccncc1 [Milrinone (PDSIII), Milrinone]
A.Average Number of Macrophages on/in Intima* (400X objective) MAC-1 Staining, Left IJV Experimental [2]: 0
endothelialization of treated venous graft compared to control contralateral venous graft [3]: better endothelialization
B.Endothelialization Score CD31 Staining, Left IJV Experimental [3]: 5
C.% Neointimal Expansion Movat's Trichrome [100 * (neointima area/neointima area + lumen area], Left IJV Experimental [4]: 70.4%
graft status printed in place of a value (Left IJV Experimental) (porcine venous graft): SO

CCCCCCCCCCCCCC(=O)O[C@@H]1[C@@H](C)[C@@]2(O)[C@@H](C=C(CO)C[C@]3(O)C(=O)C(C)=C[C@@H]23)[C@@H]2C(C)(C)[C@]12OC(C)=O [PMA, Phorbol Myristate Acetate]
A.Average Number of Macrophages on/in Intima* (400X objective) MAC-1 Staining, Left IJV Experimental [2]: 0 and 3.55
B.Endothelialization Score CD31 Staining, Left IJV Experimental [3]: 4.5 and 5
C.% Neointimal Expansion Movat's Trichrome [100 * (neointima area/neointima area + lumen area], Left IJV Experimental [4]: 78.9% and 78.8%
% neointimal expansion (% NE) compared to contralateral venous graft and heparinized saline negative control [4]: slight increase

O=C1CCC(N2C(=O)c3ccccc3C2=O)C(=O)N1 (centres unmarked) [Thalidomide]
A.Average Number of Macrophages on/in Intima* (400X objective) MAC-1 Staining, Left IJV Experimental [2]: 1.15 and 1.45
B.Endothelialization Score CD31 Staining, Left IJV Experimental [3]: 4.75 and 4.5
C.% Neointimal Expansion Movat's Trichrome [100 * (neointima area/neointima area + lumen area], Left IJV Experimental [4]: 78.2% and 80.0%

CCCC(=O)Nc1ncnc2c1ncn2[C@@H]1O[C@@H]2COP(=O)(O)O[C@H]2[C@H]1OC(=O)CCC [db-cAMP, N^6,2′-O-dibutyryl adenosine 3′,5′-cyclic monophosphate]
neointimal expansion [1]: 51.0%±4.7%
MAC-1+ cells adhered to the surface of vein patch [5]: markedly decreased
A.Average Number of Macrophages on/in Intima* (400X objective) MAC-1 Staining, Left IJV Experimental [2]: 0.025
macrophage scores of treated venous graft compared to contralateral venous graft ([2]; in words): decreases
endothelialization of treated venous graft compared to control contralateral venous graft [3]: better endothelialization
B.Endothelialization Score CD31 Staining, Left IJV Experimental [3]: 5
C.% Neointimal Expansion Movat's Trichrome [100 * (neointima area/neointima area + lumen area], Left IJV Experimental [4]: 55.6%
% neointimal expansion (% NE) compared to contralateral venous graft and heparinized saline negative control [4]: large and significant increase
db cAMP concentrations that become toxic to endothelial cells (endothelial cells): higher than 4 mM

Enbrel
graft status printed in place of a value (Left IJV Experimental) (porcine venous graft): SO

Lipopolysaccaride
A.Average Number of Macrophages on/in Intima* (400X objective) MAC-1 Staining, Left IJV Experimental [2]: 1.575
B.Endothelialization Score CD31 Staining, Left IJV Experimental [3]: 4.75
C.% Neointimal Expansion Movat's Trichrome [100 * (neointima area/neointima area + lumen area], Left IJV Experimental [4]: 77.7%
